Measured values from PubChem BioAssay (NCI).
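Assay format: 96-well plates, 48-hour exposure. TGI denotes the concentration required for complete inhibition of growth.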

Key:
Assay in all cases: NCI-60 cell line screen, 48 h
LOX IMVI melanoma = test system: LOX IMVI melanoma
SK-MEL-5 melanoma = test system: SK-MEL-5 melanoma
786-0 renal = test system: 786-0 renal
EKVX NSCLC = test system: EKVX NSCLC
UO-31 renal = test system: UO-31 renal
XF 498 CNS = test system: XF 498 CNS
CCRF-CEM leukemia = test system: CCRF-CEM leukemia
HL-60(TB) leukemia = test system: HL-60(TB) leukemia
SF-295 CNS = test system: SF-295 CNS
HT29 colon = test system: HT29 colon
NCI-H460 lung = test system: NCI-H460 lung
HOP-92 NSCLC = test system: HOP-92 NSCLC
HCT-116 colon = test system: HCT-116 colon
SF-268 CNS = test system: SF-268 CNS
SNB-19 CNS = test system: SNB-19 CNS
RPMI-8226 leukemia = test system: RPMI-8226 leukemia
DU-145 prostate = test system: DU-145 prostate
HS 578T breast = test system: HS 578T breast
PC-3 prostate = test system: PC-3 prostate
OVCAR-5 ovarian = test system: OVCAR-5 ovarian

Compound | TGI (LOX IMVI melanoma) [µM] | TGI (SK-MEL-5 melanoma) [µM] | TGI (786-0 renal) [µM] | TGI (EKVX NSCLC) [µM] | TGI (UO-31 renal) [µM] | TGI (XF 498 CNS) [µM] | TGI (CCRF-CEM leukemia) [µM] | TGI (HL-60(TB) leukemia) [µM] | TGI (SF-295 CNS) [µM] | TGI (HT29 colon) [µM] | TGI (NCI-H460 lung) [µM] | TGI (HOP-92 NSCLC) [µM] | TGI (HCT-116 colon) [µM] | TGI (SF-268 CNS) [µM] | TGI (SNB-19 CNS) [µM] | TGI (RPMI-8226 leukemia) [µM] | TGI (DU-145 prostate) [µM] | TGI (HS 578T breast) [µM] | TGI (PC-3 prostate) [µM] | TGI (OVCAR-5 ovarian) [µM]
Cc1cc(=O)[nH]c(CNC(=O)c2cccc3ccccc23)n1 | > 100 | > 100 | > 100 | > 100 | > 100 | > 100 | > 100 | > 100 | > 100 | > 100 | > 100 | > 100 | > 100 | > 100 | > 100 |  |  |  |  | 
C#CCn1c(=O)c(C)cn(/C(=C/C(=O)OCC)C(=O)OCC)c1=O | 29.8 | 32.9 | 19.4 | 21.1 | 23.4 |  | 13.5 | > 100 | 40.5 | 4.88 | 7.83 | 8.5 | 13.7 | 25.6 | 28.6 | > 27.7 | 29.5 | 30 | 25.7 | 16
Cc1nc2ccc(N=Nc3c(O)ccc4ccccc34)cc2[nH]1 | 32.4 | > 65.1 | 54.4 | > 83.6 | > 84.8 |  | > 58.3 | 46.8 | > 100 | > 67.2 | > 87.7 | 42.8 | > 58.4 | > 100 | > 100 | > 82.8 | > 100 | 61.9 | 48.1 | > 100
CC(=O)OCC1OC(O[C@@H]2C[C@H]3C(C)(C)[C@H](OC(C)=O)CC[C@]3(C)[C@H]3CC[C@@]45C[C@H](O)C[C@H](C)[C@@H]4CC=C5[C@@]32C)C(O)C(O)C1O (stereo partly drawn) | 4.07 | 8.65 | 12.8 | 22 | 26.3 |  | 13.6 | 3.86 | 12.5 | 3.7 | 12.5 | 15 | 4.85 | 15.6 | 14.9 | 6.02 | 20.6 | 18.2 | 10.7 | 6.42
C/C=C1/CN2CCC34C5=CC(=O)C(c6cc7c(cc6OC)N(C)C6=C(C(=O)OC)CC8(CC)CCCN9CCC67C98)=CC5=NC23CCC1C4C(=O)OC (stereo not drawn) | 31 | 28.5 | 24.9 | 28.1 | 24.6 |  | 5.99 | 4.22 | 31.6 | 28 | 30.1 | 20.8 | 23.1 | 33.1 | 30.3 | 16.6 | 37.2 | 25.6 | 26 | 16.8
Nc1ccc(S(=O)(=O)Nc2nc3ccccc3nc2Nc2ccc(S(N)(=O)=O)cc2)cc1 | 38.3 | > 100 | > 100 | > 100 | 56.2 |  | > 100 | 63.2 | 72.1 | > 100 | > 100 | > 100 | > 100 | 60.7 | > 100 | > 100 | > 100 | > 100 | > 100 | > 100
C/C=C/C=C/C1=NN(c2cccc(S(=O)(=O)O)c2)C2(C1)C(Cl)C(=O)N2c1nc2ccccc2s1 (stereo not drawn) | 24.5 | 25.1 | 26.7 | 35.6 | 4.15 |  | 13.1 | 33.1 | 31 | 33.3 | 31.6 | 48.2 | 27.7 | 38.4 | 29.9 | > 51.6 | 26.2 | > 90.3 | 26.3 | 34.8
CC(=O)N(/N=C\c1ccc([N+](=O)[O-])cc1)c1ccccc1 | > 100 | > 100 | > 100 | > 100 | > 100 | > 100 | > 100 |  | > 100 | > 100 | > 100 | > 100 | > 100 | > 100 | > 100 | > 100 |  |  |  | > 100
CCOC(=O)c1c(Nc2ccccc2)sc2cccnc12 | 44.6 | 24.3 | 48.3 | 59 | 43.4 |  | 71.5 | 51.3 | 49.9 | 49.6 | > 88.8 | > 29.3 | 46.7 | 64.1 | > 86.4 | 58.3 | > 69.7 | > 69.1 | 65 | 79.4
CC(=O)NC(ON1C(=O)COc2ccccc21)C(Cl)(Cl)Cl (stereo not drawn) | > 100 |  | > 100 |  | > 100 | > 100 |  | > 100 | > 100 | > 100 | > 100 | > 100 | > 100 | > 100 | > 100 | > 100 |  |  |  | > 100
